How the values were obtained:
[1] = system: crabgrass; assay: Test B pre/postemergence crabgrass; type: in vivo, Digitaria sanguinalis
Summary of the method: (§1)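 Response is a visual 0-to-10 score relative to untreated plants, where 0 means no effect and 10 means complete control, taken twelve to sixteen days after application. Treatments went onto soil at planting and onto foliage of 1- to 4-leaf plants, using a surfactant-containing non-phytotoxic solvent.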

[2] = system: pigweed; assay: Test B pre/postemergence pigweed; type: in vivo, Amaranthus retroflexus
Summary of the method: as §1

[3] = system: blackgrass; assay: Test B pre/postemergence blackgrass; type: in vivo, Alopecurus myosuroides
Summary of the method: as §1

[4] = system: cocklebur; assay: Test B pre/postemergence cocklebur; type: in vivo, Xanthium strumarium
Summary of the method: as §1

[5] = system: duck salad; assay: Test B flood test duck salad; type: in vivo, Heteranthera limosa
Summary of the method: (§2)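 Read-out is a visual response score from 0 (no effect) to 10 (complete control), assigned by comparison with untreated controls. Treatment was applied at the 2-leaf stage, and plants stayed in the greenhouse for twelve to sixteen days before scoring.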

[6] = system: purple nutsedge; assay: Test B pre/postemergence purple nutsedge; type: in vivo, Cyperus rotundus
Summary of the method: as §1

[7] = system: wheat; assay: Test B pre/postemergence wheat; type: in vivo, Triticum aestivum
Summary of the method: as §1

[8] = system: corn; assay: Test B pre/postemergence corn; type: in vivo, Zea mays
Summary of the method: as §1

[9] = system: giant foxtail; assay: Test B pre/postemergence giant foxtail; type: in vivo, Setaria faberii
Summary of the method: as §1

[10] = system: soybean; assay: Test B pre/postemergence soybean; type: in vivo, Glycine max
Summary of the method: as §1

[11] = system: wild oat; assay: Test B pre/postemergence wild oat; type: in vivo, Avena fatua
Summary of the method: as §1

[12] = system: smallflower flatsedge; assay: Test B flood test smallflower flatsedge; type: in vivo, Cyperus difformis
Summary of the method: as §2

[13] = system: morningglory; assay: Test B pre/postemergence morningglory; type: in vivo, Ipomoea hederacea
Summary of the method: as §1

[14] = system: rice; assay: Test B flood test rice; type: in vivo, Oryza sativa
Summary of the method: as §2

[15] = system: velvetleaf; assay: Test B pre/postemergence velvetleaf; type: in vivo, Abutilon theophrasti
Summary of the method: as §1

[16] = system: rape; assay: Test B pre/postemergence rape; type: in vivo, Brassica napus
Summary of the method: as §1

[17] = system: sugar beet; assay: Test B pre/postemergence sugar beet; type: in vivo, Beta vulgaris
Summary of the method: as §1

[18] = system: surinam grass; assay: Test B pre/postemergence surinam grass; type: in vivo, Brachiaria decumbens
Summary of the method: as §1

[19] = system: bedstraw; assay: Test B pre/postemergence bedstraw; type: in vivo, Galium aparine
Summary of the method: as §1

[20] = system: bamyardgrass; assay: Test B flood test barnyardgrass; type: in vivo, Echinochloa crus-galli
Summary of the method: as §2

[21] = Preemergence, Rate 62 g/ha, scale of 0 to 10 where 0 is no effect and 10 is complete control
[22] = Preemergence, Rate 250 g/ha, scale of 0 to 10 where 0 is no effect and 10 is complete control
[23] = Preemergence, Rate 500 g/ha, scale of 0 to 10 where 0 is no effect and 10 is complete control
[24] = Rate 125 g/ha, Preemergence, scale of 0 to 10 where 0 is no effect and 10 is complete control
[25] = Rate 500 g/ha, Postemergence, scale 0 to 10, 0 no effect, 10 complete control
[26] = Rate 62 g/ha, Postemergence, scale of 0 to 10 where 0 is no effect and 10 is complete control
[27] = Rate 125 g/ha, Postemergence, scale 0 to 10
[28] = Rate 62 g/ha, headed Pre-emergence (flood test species), scale 0 to 10 (0 no effect, 10 complete control)
[29] = Rate 125 g/ha, Pre-emergence, flood test species, scale 0 to 10 where 0 is no effect and 10 is complete control
[30] = Rate 250 g/ha, Pre-emergence, flood-test species, scale 0 to 10, 0 is no effect, 10 is complete control
[31] = Rate 500 g/ha, Pre-emergence, flood test species, scale 0 to 10 (0 no effect, 10 complete control)

SMILES: COC(=O)CCCn1c(=O)on(C(=O)N(c2ccc(F)cc2)C(C)C)c1=O [Compound 266]
- Crabgrass plant response rating [1, 21]: 0
- Crabgrass plant response rating [1, 22]: 5
- Plant response rating, Crabgrass [1, 23]: 6
- Crabgrass plant response rating [1, 24]: 1
- Plant response rating (0 to 10; 0 is no effect, 10 is complete control), Crabgrass ([1]; Rate 250 g/ha, Postemergence): 3
- Crabgrass plant response rating [1, 25]: 5
- Redroot pigweed plant response rating [2, 21]: 0
- Redroot pigweed plant response rating [2, 22]: 6
- Plant response rating, Redroot pigweed [2, 23]: 9
- Redroot pigweed plant response rating [2, 24]: 0
- Plant response rating (0 to 10; 0 is no effect, 10 is complete control), Redroot pigweed ([2]; Rate 250 g/ha, Postemergence): 5
- Redroot pigweed plant response rating [2, 25]: 7
- Blackgrass plant response rating [3, 21]: 8
- Blackgrass plant response rating [3, 22]: 9
- Plant response rating, Blackgrass [3, 23]: 9
- Blackgrass plant response rating [3, 26]: 3
- Blackgrass plant response rating [3, 27]: 5
- Blackgrass plant response rating [3, 24]: 8
- Plant response rating (0 to 10; 0 is no effect, 10 is complete control), Blackgrass ([3]; Rate 250 g/ha, Postemergence): 6
- Blackgrass plant response rating [3, 25]: 8
- Cocklebur plant response rating [4, 21]: 0
- Cocklebur plant response rating [4, 22]: 0
- Plant response rating, Cocklebur [4, 23]: 0
- Cocklebur plant response rating [4, 26]: 0
- Cocklebur plant response rating [4, 27]: 0
- Cocklebur plant response rating [4, 24]: 0
- Plant response rating (0 to 10; 0 is no effect, 10 is complete control), Cocklebur ([4]; Rate 250 g/ha, Postemergence): 2
- Cocklebur plant response rating [4, 25]: 2
- Ducksalad plant response rating [5, 28]: 0
- Ducksalad plant response rating [5, 29]: 0
- Ducksalad plant response rating [5, 30]: 0
- Ducksalad plant response rating [5, 31]: 0
- Nutsedge plant response rating [6, 22]: 0
- Plant response rating, Nutsedge [6, 23]: 0
- Nutsedge plant response rating [6, 24]: 0
- Plant response rating (0 to 10; 0 is no effect, 10 is complete control), Nutsedge ([6]; Rate 250 g/ha, Postemergence): 0
- Nutsedge plant response rating [6, 25]: 3
- Wheat plant response rating [7, 21]: 0
- Wheat plant response rating [7, 22]: 4
- Plant response rating, Wheat [7, 23]: 6
- Wheat plant response rating [7, 24]: 0
- Wheat plant response rating [7, 25]: 6
- Corn plant response rating [8, 21]: 0
- Corn plant response rating [8, 22]: 0
- Plant response rating, Corn [8, 23]: 0
- Corn plant response rating [8, 26]: 0
- Corn plant response rating [8, 27]: 0
- Corn plant response rating [8, 24]: 0
- Plant response rating (0 to 10; 0 is no effect, 10 is complete control), Corn ([8]; Rate 250 g/ha, Postemergence): 0
- Corn plant response rating [8, 25]: 0
- Giant foxtail plant response rating [9, 21]: 0
- Giant foxtail plant response rating [9, 22]: 6
- Plant response rating, Giant foxtail [9, 23]: 8
- Giant foxtail plant response rating [9, 24]: 4
- Plant response rating (0 to 10; 0 is no effect, 10 is complete control), Giant foxtail ([9]; Rate 250 g/ha, Postemergence): 5
- Giant foxtail plant response rating [9, 25]: 7
- Soybean plant response rating [10, 21]: 0
- Soybean plant response rating [10, 22]: 0
- Plant response rating, Soybean [10, 23]: 0
- Soybean plant response rating [10, 24]: 0
- Soybean plant response rating [10, 25]: 8
- Wild oats plant response rating [11, 21]: 0
- Wild oats plant response rating [11, 22]: 5
- Plant response rating, Wild oats [11, 23]: 7
- Wild oats plant response rating [11, 24]: 2
- Wild oats plant response rating [11, 25]: 2
- S. Flatsedge plant response rating [12, 28]: 0
- S. Flatsedge plant response rating [12, 29]: 0
- S. Flatsedge plant response rating [12, 30]: 0
- S. Flatsedge plant response rating [12, 31]: 0
- Morningglory plant response rating [13, 21]: 0
- Morningglory plant response rating [13, 22]: 0
- Plant response rating, Morningglory [13, 23]: 1
- Morningglory plant response rating [13, 24]: 0
- Plant response rating (0 to 10; 0 is no effect, 10 is complete control), Morningglory ([13]; Rate 250 g/ha, Postemergence): 5
- Morningglory plant response rating [13, 25]: 8
- Rice plant response rating [14, 28]: 0
- Rice plant response rating [14, 29]: 0
- Rice plant response rating [14, 30]: 0
- Rice plant response rating [14, 31]: 0
- Velvetleaf plant response rating [15, 21]: 0
- Velvetleaf plant response rating [15, 22]: 0
- Plant response rating, Velvetleaf [15, 23]: 4
- Velvetleaf plant response rating [15, 24]: 0
- Velvetleaf plant response rating [15, 25]: 5
- Rape plant response rating [16, 21]: 0
- Rape plant response rating [16, 22]: 5
- Plant response rating, Rape [16, 23]: 5
- Rape plant response rating [16, 24]: 0
- Plant response rating (0 to 10; 0 is no effect, 10 is complete control), Rape ([16]; Rate 250 g/ha, Postemergence): 6
- Rape plant response rating [16, 25]: 7
- Sugarbeets plant response rating [17, 21]: 0
- Sugarbeets plant response rating [17, 22]: 7
- Plant response rating, Sugarbeets [17, 23]: 7
- Sugarbeets plant response rating [17, 24]: 5
- Sugarbeets plant response rating [17, 25]: 7
- B. signalgrass plant response rating [18, 21]: 0
- B. signalgrass plant response rating [18, 22]: 0
- Plant response rating, B. signalgrass [18, 23]: 7
- B. signalgrass plant response rating [18, 26]: 0
- B. signalgrass plant response rating ([18]; Rate 125 g/ha, Postemergence, scale 0 (no effect) to 10 (complete control)): 0
- B. signalgrass plant response rating [18, 24]: 0
- Plant response rating (0 to 10; 0 is no effect, 10 is complete control), B. signalgrass ([18]; Rate 250 g/ha, Postemergence): 0
- B. signalgrass plant response rating [18, 25]: 2
- Bedstraw plant response rating [19, 21]: 0
- Bedstraw plant response rating [19, 22]: 8
- Plant response rating, Bedstraw [19, 23]: 9
- Bedstraw plant response rating [19, 26]: 0
- Bedstraw plant response rating [19, 27]: 0
- Bedstraw plant response rating [19, 24]: 3
- Plant response rating (0 to 10; 0 is no effect, 10 is complete control), Bedstraw ([19]; Rate 250 g/ha, Postemergence): 5
- Bedstraw plant response rating [19, 25]: 6
- Barnyardgrass plant response rating [20, 28]: 0
- Barnyardgrass plant response rating [20, 29]: 0
- Barnyardgrass plant response rating [20, 30]: 0
- Barnyardgrass plant response rating [20, 31]: 0

From patent publication US6737383B1, “Herbicidal oxadiazolidines” (priority 1999, dated 2004)
